From US7445765B2, “Radiopharmaceutical for diagnostic imaging containing a technetium-99m nitride heterocomplex” (Nihon Medi-Physics Co., Ltd., priority 2000, dated 2008)

Experiments:
[1] = Stability: ligand exchange reaction with cysteine or glutathione; format: physicochemical; settings: phosphate buffer pH 7.4, 37° C., up to 2 hours, TLC
Description: The stability of the ^99mTc(N) heterocomplexes obtained using PNP3 as a bisphosphinoamine compound in Example 1 was confirmed by ligand exchange reaction with cysteine or glutathione.
250.0 μL of phosphate buffer solution (0.20 M, pH=7.4), 100 μL of water and 100 μL of each of the ^99mTc(N) heterocomplexes purified were mixed with 50 μL of each of cysteine solutions having different concentrations of 10 mM and 1.0 mM, and the resulting mixture was placed in a polypropylene test tube and incubated in a thermostat at 37° C. A blank solution was obtained by mixing an equal volume of water without addition of cysteine. Aliquots of the resulting solutions were withdrawn at 15 min, 30 min, 60 min and 2 hours after the start of the incubation, and analyzed by TLC. The same experiment as above was carried out except for using glutathione in place of cysteine. All the ^99mTc(N) heterocomplex samples were found stable against transchelation by cystein or glutathione.

[2] = Biodistribution of the 99mTc(N) heterocomplexes in rats (organ uptake, heart accumulation, heart/lung and heart/liver ratios); format: in vivo, female Sprague-Dawley rats
Procedure, shortened: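 Female Sprague-Dawley rats (200–250 g, n=3), ketamine/xylazine anaesthesia, got 300–370 kBq of each purified heterocomplex in pH 7.4 phosphate buffer (10% ethanol) via the jugular vein. They were killed at several post-injection times. Heart blood and washed, weighed organs were gamma-counted, taking whole blood as 6.5% of body weight.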

[3] = Measurement of Log k′ (partition ratio) by HPLC, PNP3 heterocomplexes; format: physicochemical; settings: HPLC C18, methanol/phosphate buffer (0.02M, pH 7.4), 1.0 mL/min; extrapolated to 0% organic solvent
Description: For the various ^99mTc(N) heterocomplexes synthesized using PNP3 as a bisphosphinoamine compound in Example 1, Log k′ values were determined at various compositions of a mobile phase for HPLC. As the mobile phase, mixtures of methanol and phosphate buffer (0.02M, pH=7.4) were used at a flow rate of 1.0 mL/min. For each sample, the retention time was measured at a minimum of three different methanol concentrations in the mobile phase. The Log k′ values at 0% organic solvent (Log k′0) were extrapolated from the linear part of the curve Log k′=a+bC, where C is the methanol concentration, and Log k′ is Log (tR-to)/to wherein tR is HPLC retension time (min). The column void time (t0) was regarded as being equal to the elution time of pertechnetic acid.

SMILES: COCCC[P]1(CCCOC)CCN(CCOC)CC[P](CCCOC)(CCCOC)[99Tc+]12(#[N])[S]C(N(CCOC)CCOC)=[S]2 [[^99mTc(N) (PNP3) (DPODC)]^+]
- Stability [1]: Stable
- Biodistribution in rats: Adrenal glands ([2]; 0 min post injection): 1.65 ± 0.22 % ID/g
- Biodistribution in rats: Blood ([2]; 0 min post injection): 1.36 ± 0.02 % ID/g
- Biodistribution in rats: Brain ([2]; 0 min post injection): 0.20 ± 0.02 % ID/g
- Biodistribution in rats: Heart ([2]; 0 min post injection): 3.08 ± 0.31 % ID/g
- Biodistribution in rats: Intestine ([2]; 0 min post injection): 3.25 ± 0.60 % ID/g
- Biodistribution in rats: Kidneys ([2]; 0 min post injection): 6.36 ± 0.13 % ID/g
- Biodistribution in rats: Liver ([2]; 0 min post injection): 3.48 ± 0.24 % ID/g
- Biodistribution in rats: Lungs ([2]; 0 min post injection): 1.45 ± 0.04 % ID/g
- Biodistribution in rats: Muscle ([2]; 0 min post injection): 0.27 ± 0.02 % ID/g
- Biodistribution in rats: Spleen ([2]; 0 min post injection): 1.23 ± 0.01 % ID/g
- Biodistribution in rats: Submaxillary glands ([2]; 0 min post injection): 2.27 ± 0.20 % ID/g
- Biodistribution in rats: Adrenal glands ([2]; 2 min post injection): 0.98 ± 0.12 % ID/g
- Biodistribution in rats: Blood ([2]; 2 min post injection): 0.30 ± 0.09 % ID/g
- Biodistribution in rats: Brain ([2]; 2 min post injection): 0.02 ± 0.00 % ID/g
- Biodistribution in rats: Heart ([2]; 2 min post injection): 2.06 ± 0.13 % ID/g
- Biodistribution in rats: Intestine ([2]; 2 min post injection): 4.30 ± 1.74 % ID/g
- Biodistribution in rats: Kidneys ([2]; 2 min post injection): 8.21 ± 0.62 % ID/g
- Biodistribution in rats: Liver ([2]; 2 min post injection): 3.71 ± 0.36 % ID/g
- Biodistribution in rats: Lungs ([2]; 2 min post injection): 0.65 ± 0.06 % ID/g
- Biodistribution in rats: Muscle ([2]; 2 min post injection): 0.25 ± 0.04 % ID/g
- Biodistribution in rats: Spleen ([2]; 2 min post injection): 0.51 ± 0.04 % ID/g
- Biodistribution in rats: Submaxillary glands ([2]; 2 min post injection): 1.22 ± 0.11 % ID/g
- Biodistribution in rats: Adrenal glands ([2]; 10 min post injection): 1.49 ± 0.82 % ID/g
- Biodistribution in rats: Blood ([2]; 10 min post injection): 0.21 ± 0.00 % ID/g
- Biodistribution in rats: Brain ([2]; 10 min post injection): 0.01 ± 0.00 % ID/g
- Biodistribution in rats: Heart ([2]; 10 min post injection): 2.37 ± 0.33 % ID/g
- Biodistribution in rats: Intestine ([2]; 10 min post injection): 4.36 ± 2.28 % ID/g
- Biodistribution in rats: Kidneys ([2]; 10 min post injection): 6.82 ± 3.62 % ID/g
- Biodistribution in rats: Liver ([2]; 10 min post injection): 3.49 ± 0.09 % ID/g
- Biodistribution in rats: Lungs ([2]; 10 min post injection): 0.67 ± 0.23 % ID/g
- Biodistribution in rats: Muscle ([2]; 10 min post injection): 0.29 ± 0.08 % ID/g
- Biodistribution in rats: Spleen ([2]; 10 min post injection): 0.57 ± 0.22 % ID/g
- Biodistribution in rats: Submaxillary glands ([2]; 10 min post injection): 1.70 ± 0.60 % ID/g
- Biodistribution in rats: Adrenal glands ([2]; 20 min post injection): 1.46 ± 0.15 % ID/g
- Biodistribution in rats: Blood ([2]; 20 min post injection): 0.08 ± 0.02 % ID/g
- Biodistribution in rats: Brain ([2]; 20 min post injection): 0.01 ± 0.00 % ID/g
- Biodistribution in rats: Heart ([2]; 20 min post injection): 2.49 ± 0.31 % ID/g
- Biodistribution in rats: Intestine ([2]; 20 min post injection): 14.47 ± 4.75 % ID/g
- Biodistribution in rats: Kidneys ([2]; 20 min post injection): 5.63 ± 2.05 % ID/g
- Biodistribution in rats: Liver ([2]; 20 min post injection): 1.86 ± 0.47 % ID/g
- Biodistribution in rats: Lungs ([2]; 20 min post injection): 0.43 ± 0.05 % ID/g
- Biodistribution in rats: Muscle ([2]; 20 min post injection): 0.39 ± 0.12 % ID/g
- Biodistribution in rats: Spleen ([2]; 20 min post injection): 0.38 ± 0.04 % ID/g
- Biodistribution in rats: Submaxillary glands ([2]; 20 min post injection): 1.38 ± 0.07 % ID/g
- Biodistribution in rats: Adrenal glands ([2]; 30 min post injection): 1.31 ± 0.19 % ID/g
- Biodistribution in rats: Blood ([2]; 30 min post injection): 0.04 ± 0.00 % ID/g
- Biodistribution in rats: Brain ([2]; 30 min post injection): 0.01 ± 0.00 % ID/g
- Biodistribution in rats: Heart ([2]; 30 min post injection): 2.57 ± 0.06 % ID/g
- Biodistribution in rats: Intestine ([2]; 30 min post injection): 11.78 ± 1.78 % ID/g
- Biodistribution in rats: Kidneys ([2]; 30 min post injection): 4.88 ± 0.56 % ID/g
- Biodistribution in rats: Liver ([2]; 30 min post injection): 1.30 ± 0.71 % ID/g
- Biodistribution in rats: Lungs ([2]; 30 min post injection): 0.41 ± 0.04 % ID/g
- Biodistribution in rats: Muscle ([2]; 30 min post injection): 0.32 ± 0.08 % ID/g
- Biodistribution in rats: Spleen ([2]; 30 min post injection): 0.37 ± 0.00 % ID/g
- Biodistribution in rats: Submaxillary glands ([2]; 30 min post injection): 1.53 ± 0.17 % ID/g
- Biodistribution in rats: Adrenal glands ([2]; 60 min post injection): 1.17 ± 0.17 % ID/g
- Biodistribution in rats: Blood ([2]; 60 min post injection): 0.02 ± 0.01 % ID/g
- Biodistribution in rats: Brain ([2]; 60 min post injection): 0.01 ± 0.00 % ID/g
- Biodistribution in rats: Heart ([2]; 60 min post injection): 2.26 ± 0.60 % ID/g
- Biodistribution in rats: Intestine ([2]; 60 min post injection): 11.05 ± 5.05 % ID/g
- Biodistribution in rats: Kidneys ([2]; 60 min post injection): 3.44 ± 0.76 % ID/g
- Biodistribution in rats: Liver ([2]; 60 min post injection): 0.42 ± 0.23 % ID/g
- Biodistribution in rats: Lungs ([2]; 60 min post injection): 0.27 ± 0.09 % ID/g
- Biodistribution in rats: Muscle ([2]; 60 min post injection): 0.27 ± 0.04 % ID/g
- Biodistribution in rats: Spleen ([2]; 60 min post injection): 0.18 ± 0.10 % ID/g
- Biodistribution in rats: Submaxillary glands ([2]; 60 min post injection): 1.33 ± 0.46 % ID/g
- Biodistribution in rats: Adrenal glands ([2]; 120 min post injection): 1.14 ± 0.15 % ID/g
- Biodistribution in rats: Blood ([2]; 120 min post injection): 0.01 ± 0.00 % ID/g
- Biodistribution in rats: Brain ([2]; 120 min post injection): 0.01 ± 0.00 % ID/g
- Biodistribution in rats: Heart ([2]; 120 min post injection): 2.45 ± 0.41 % ID/g
- Biodistribution in rats: Intestine ([2]; 120 min post injection): 16.10 ± 2.10 % ID/g
- Biodistribution in rats: Kidneys ([2]; 120 min post injection): 3.43 ± 0.38 % ID/g
- Biodistribution in rats: Liver ([2]; 120 min post injection): 0.16 ± 0.04 % ID/g
- Biodistribution in rats: Lungs ([2]; 120 min post injection): 0.20 ± 0.04 % ID/g
- Biodistribution in rats: Muscle ([2]; 120 min post injection): 0.36 ± 0.12 % ID/g
- Biodistribution in rats: Spleen ([2]; 120 min post injection): 0.14 ± 0.03 % ID/g
- Biodistribution in rats: Submaxillary glands ([2]; 120 min post injection): 1.36 ± 0.14 % ID/g
- Log k′ (partition ratio) [3]: 3.18
